Reference: publication PMC6836419, “In vitro and in silico anti-dengue activity of compounds obtained from Psidium guajava through bioprospecting” (BMC Complementary and Alternative Medicine, 2019)
In brackets after ≈: the same amount, converted by molar mass. Where two headings read alike, the source gives them in different places.

How the values were obtained:
[1] = system: DENV-2; conditions: cited from earlier work
[2] = system: DENV-2/NG; assay: Antiviral effect on virus cell entry (pre-treatment strategy); format: cell-based; conditions: for inhibition at 50 µg/mL: Dengue virus, DENV2, Vero
Description: (§1) A total of 2.5 × 10^4 cells/well were seeded in 96-well plates. The cells were inoculated the following day with serial dilutions (10^− 1 to 10^− 6) of the supernatants from the EC50 experiments for 2 h. Next, the inoculum were removed, and 1.5% carboxymethylcellulose (Sigma-Aldrich) prepared in DMEM (Gibco®) supplemented with 2% FCS (Gibco®) was added, followed by incubation at 37 °C in a 5% CO 2 atmosphere. On the third day, the cells were fixed with a methanol-acetone (1:1) solution for 10 min, washed three times with PBS, and permeabilized with 0.1% Triton X-100 for 30 min, after which nonspecific site blocking was performed with 10% FBS in PBS. Then, DENV anti-envelope monoclonal antibody (mAb) was diluted 1:500 with PBS containing 10% FCS (Gibco®) was added, followed by incubation for 1 h at 37 °C. After washing with PBS, the plates were incubated for 30 min with an anti-mouse IgG secondary antibody conjugated to peroxidase. Finally, the reactions were stained with 3-amino-9-ethylcarbazole (AEC, Sigma-Aldrich), and the number of foci in each well were counted.
A total of 2.5 × 10^4 VERO cells were seeded in 24-well plates for 24 h, and the fractions (100 μg/mL) or characterized compounds (50 μg/mL) were then added and incubated with the cells for an additional 24 h (pre-treatment strategy). Subsequently, treatment was withdrawn, and a viral inoculum (DENV-2/NG at an MOI = 1) was added and incubated for 2 h. Subsequently, the virus was removed, and fresh medium was added for an additional 48 h, after which the supernatants were collected and stored at − 70 °C until further processing via the multiwell plate focus assay. For each fraction and compound, two independent experiments were performed each with two replicates (n = 4). Heparin (Sigma-Aldrich) served as the positive control for viral inhibition.
(§2) Fig. 4 Antiviral effects of the compounds derived from the Pg- YP-I-22C fraction on some steps of the DENV replication cycle. The cells were treated with the compounds for 48 h and then infected with DENV (MOI = 1). This infection strategy (pre-treatment) is represented by the dark bars. In addition, independent cell cultures were infected with DENV (MOI = 1) and then treated with the compounds (post-treatment strategy; indicated by clear bars). The error bars correspond to the SEM. The asterisks indicate cases with statistically significant differences (Student’s t-test; p < 0.05) in relation to the control without treatment

[3] = MTT cytotoxicity (CC50) in VERO cells; format: cell-based; conditions: African green monkey (Cercopithecus aethiops)
Description: The CC50 was determined via the 3-(4,5-dimethyl-2-thiazolyl)-2,5-diphenyl-2H-tetrazolium bromide) (MTT, Sigma-Aldrich) method. For this, 2.5 × 10^4 VERO cells were seeded in 96-well plates for 24 h. […] After the incubation period, an MTT solution (0.5 mg/mL) was added to the cultures, which were then incubated for an additional 3 h at 37 °C. Finally, dimethyl sulfoxide was added, and the absorbance was read at 450 nm in a Bio-Rad Benchmark® microplate reader. Cultures without extract, fractions, or compounds were processed as positive controls for viability. […] Each experimental condition was tested in triplicate in two independent experiments (n = 6).
To determine the CC50 and EC50, a regression analysis was performed with Probit Software. The SI of each molecule was determined from the relationship between the CC50 and EC50, using the formula SI = CC50/EC50. To compare the number of infectious viral particles released between the cells treated with each fraction or compound (for both the pre- and post-treatment strategies) and the untreated cells, Student’s t-test was used. […] Each experimental condition was tested in triplicate in two independent experiments (n = 6) to guaranty the statistical analysis and the figures show the average of those experiments.

[4] = system: DENV-2/NG; assay: EC50 determination: VERO cells infected with DENV-2/NG in the presence of treatment, multiwell plate focus assay; format: cell-based; conditions: for EC50: Dengue virus, DENV2, Vero, read-out: Effective concentration 50% (EC50); for Selectivity index (SI): SI = CC50/EC50, VERO cells infected with DENV-2/NG
Description: The SI of each ethanolic extract, fraction, or compound was calculated from the relationship between the cytotoxic concentration 50% (CC50) and effective concentration 50% (EC50). The CC50 was determined via the 3-(4,5-dimethyl-2-thiazolyl)-2,5-diphenyl-2H-tetrazolium bromide) (MTT, Sigma-Aldrich) method. For this, 2.5 × 10^4 VERO cells were seeded in 96-well plates for 24 h. Subsequently, serial dilutions of the ethanolic extracts (7.8 μg/mL to 1000 μg/mL), fractions (6.25 to 400 μg/mL), and characterized compounds (6.25 to 400 μg/mL) were performed and incubated with the cells for 48 h. After the incubation period, an MTT solution (0.5 mg/mL) was added to the cultures, which were then incubated for an additional 3 h at 37 °C. Finally, dimethyl sulfoxide was added, and the absorbance was read at 450 nm in a Bio-Rad Benchmark® microplate reader. Cultures without extract, fractions, or compounds were processed as positive controls for viability. The CC50 was calculated as the extract concentration that reduced cell viability by 50% using regression analysis (Probit software). Each experimental condition was tested in triplicate in two independent experiments (n = 6). To calculate the EC50, 2.5 × 10^4 VERO cells were seeded in 96-well plates for 24 h. At 24 h, serial dilutions of each ethanolic extract (7.8 μg/mL to 1000 μg/mL), fraction (6.25 to 400 μg/mL), and characterized compound (6.25 to 400 μg/mL) were mixed with the DENV-2/NG strain (at a multiplicity of infection (MOI = 1) and added to the cell monolayers for 2 h. At 2 h post-inoculation (hpi), the mixtures were removed, and the same serial dilutions of the extracts, fractions, or compounds were added again and incubated for 24 h. Finally, the supernatants were collected and stored at − 70 °C until performing the multiwell plate focus assay.
as §1
To determine the CC50 and EC50, a regression analysis was performed with Probit Software. The SI of each molecule was determined from the relationship between the CC50 and EC50, using the formula SI = CC50/EC50. To compare the number of infectious viral particles released between the cells treated with each fraction or compound (for both the pre- and post-treatment strategies) and the untreated cells, Student’s t-test was used. All statistical analyses were performed using the Prism® 7.01 for Windows™ package (GraphPad Software, San Diego, CA), considering differences statistically significant at p < 0.05 in all cases. Each experimental condition was tested in triplicate in two independent experiments (n = 6) to guaranty the statistical analysis and the figures show the average of those experiments.

[5] = system: DENV-2/NG; assay: Antiviral effect after virus cell entry (post-treatment strategy); format: cell-based; conditions: for inhibition at 50 µg/mL: Dengue virus, DENV2, Vero, 48 h; for Viral inhibition percentage, post-treatment strategy: VERO cells infected with DENV-2/NG MOI = 1, then compounds 50 μg/mL for 48 h
Description: as §1
A total of 2.5 × 10^4 VERO cells were seeded in 24-well plates for 24 h, and a viral inoculum (DENV-2/NG at an MOI = 1) was then added and incubated for 2 h. Subsequently, the inoculum was removed, and the fractions (100 μg/mL) or characterized compounds (50 μg/mL) were added and incubated with the cells for an additional 48 h (post-treatment strategy). Next, the supernatants were collected and stored at − 70 °C until further processing via the multiwell plate focus assay. For each fraction or compound, two independent experiments were performed each with two replicates (n = 4). Suramin served as the positive control for viral inhibition.
as §2

[6] = read-out: Viral inhibition percentage, pre-treatment strategy, compounds 50 μg/mL added to VERO cells before infection with DENV-2/NG MOI = 1, plate focus assay
[7] = VERO cells, 48 h incubation, MTT, unit given, not in Table 1, read-out: Cytotoxic concentration 50% (CC50)
[8] = read-out: Viral inhibition percentage, post-treatment strategy, VERO cells infected with DENV-2/NG MOI = 1, then compounds 50 μg/mL for 48 h, plate focus assay

| SMILES | CC50 at 48 h [3, 7] [µg/mL] | EC50 [4] [µg/mL] | Selectivity index (SI) [4] | inhibition at 50 µg/mL [5, 8] [%] | also measured |
| --- | --- | --- | --- | --- | --- |
| CC[C@H]1CC2CN3CCc4c([nH]c5ccc(OC)cc45)[C@](C(=O)OC)(C2)[C@H]13 (stereo in doubt) [voacangine] |  |  |  |  | Inhibition of infection in vitro by plant-derived compounds [1]: greater than 50% |
| Oc1cc(O)c2c(c1)OC(c1ccc(O)c(O)c1)C(O)C2 (stereo not drawn) [Catechin, catechin] | 833 (≈ 2870 µM) | 33.7 | 24.8 | 91.8 | inhibition at 50 µg/mL [2, 6]: 100%; Viral inhibition percentage, pre-treatment strategy ([2]; compounds 50 μg/mL added to VERO cells before infection with DENV-2/NG MOI = 1, plate focus assay): greater than 90%; Viral inhibition percentage, post-treatment strategy ([5]; plate focus assay): greater than 90% |
| O=C(O)c1cc(O)c(O)c(O)c1 [Gallic Acid, gallic acid] | 543 (≈ 3190 µM) | 25.8 | 21.1 | 67.3 | inhibition at 50 µg/mL [2, 6]: 52.6% |
| C[C@@H]1O[C@@H](O[C@H]2[C@H](Oc3cc(O)c4c(c3)O[C@H](c3ccc(O)cc3)CC4=O)O[C@H](CO)[C@@H](O)[C@@H]2O)[C@H](O)[C@H](O)[C@H]1O [Naringin, naringin] | 647 (≈ 1110 µM) | 47.9 | 13.5 | 64.5 |  |
| O=c1c(O)c(-c2ccc(O)c(O)c2)oc2cc(O)cc(O)c12 [Quercetin, quercetin] |  | 19.2 | 34.3 |  | inhibition at 50 µg/mL ([2]; read-out: Viral inhibition percentage, pre-treatment strategy): 50%; CC50 at 48 h [3]: 660 µg/mL (≈ 2180 µM); inhibition at 50 µg/mL ([5]; read-out: Viral inhibition percentage, post-treatment strategy): 100% |
| Cc1ccc(C(=O)Nc2ccc(S(=O)(=O)O)c3cc(S(=O)(=O)O)cc(S(=O)(=O)O)c23)cc1NC(=O)c1cccc(NC(=O)Nc2cccc(C(=O)Nc3cc(C(=O)Nc4ccc(S(=O)(=O)O)c5cc(S(=O)(=O)O)cc(S(=O)(=O)O)c45)ccc3C)c2)c1 [SURAMIN, suramin, reference compound] |  |  |  |  | Viral inhibition percentage, post-treatment strategy ([5]; plate focus assay): better inhibition |
| C=C(C)[C@@H]1CC[C@]2(C)CC[C@]3(C)[C@H](CC[C@@H]4[C@@]5(C)CC[C@H](O)C(C)(C)[C@@H]5CC[C@]43C)[C@@H]12 [lupeol] |  |  |  |  | Inhibition of infection in vitro by plant-derived compounds [1]: greater than 50% |
